Results: patent US8420659B2, “Compositions and methods for inhibition of the JAK pathway” (Rigel Pharmaceuticals, Inc., priority 2008, dated 2013)

Test system: Human primary T-cells
Experiment: Cell Titer-Glo, Human primary T Cell, IL2 (proliferation)
Type: cell-based
Conditions: IL-2 stimulated primary T-cell proliferation, 72 hours at 37° C., Cell Titer-Glo luminescence
Excerpt: The activity of the compounds described herein can further be characterized by assaying the effect of the 2,4-pyrimidinediamine compounds described herein on the proliferative response of primary human T-cells. In this assay, primary human. T-cells derived from peripheral blood and pre-activated through stimulation of the T-cell receptor and CD28, proliferate in culture in response to the cytokine Interleukin-2 (IL-2). This proliferative response is dependent on the activation of JAK1 and JAK3 tyrosine kinases, which phosphorylate and activate the transcription factor Stat-5. The primary human T-cells are incubated with the 2,4-pyrimidinediamine compounds in the presence of IL-2 for 72 hours, and at the assay endpoint intracellular ATP concentrations are measured to assess cell viability. A reduction in cell proliferation compared to control conditions is indicative of inhibition of the JAK kinase pathway.
Cell Titer-Glo, Human primary T Cell, IL2
Materials and Reagents: Dimethyl Sulfoxide (DMSO) (Sigma-Aldrich, Cat# D2650) was used as a control. The following reagents were used: Ficoll Hypaque (Amersham Pharmacia, Cat#17-1440-03), Anti-Human CD3 (BD Pharmingen, Cat#555336), Anti-Human CD28 (Immunotech, Cat# IM1376), Yssel's Media (Gemini Bio-products, Cat#400-103), RPMI 1640 (Cellgro, Cat#10-040-CM), Fetal Bovine Serum (JRH, Cat#12106-500M), and […] (R& D Systems, Cat#202-IL).
Human primary T-cells were isolated and cultured according to the following procedure. Whole blood was obtained from a healthy volunteer, mixed 1:1 with PBS, layered on to Ficoll Hypaque in 2:1 blood/PBS:ficoll ratio and centrifuged for 30 min at 4° C. at 1750 rpm. The lymphocytes at the serum: ficoll interface were recovered and washed twice with 5 volumes of PBS. The cells were resuspended in Yssel's medium containing 40 U/mL IL-2 and seeded into a flask pre-coated with […] anti-CD3 and […] anti-CD28. The primary T-cells were stimulated for 3-4 days, then transferred to a fresh flask and maintained in RPMI with 10% FBS and 40 U/mL IL-2.
Primary T-cells were starved of IL-2 overnight and resuspended in Yssel's medium at 2×10^6 cells/mL. 50 μL of cell suspension containing 80 U/mL IL-2 was added to each well of a flat bottom 96 well black plate. For the unstimulated control, IL-2 was omitted from the last column on the plate. Compound was serially diluted in DMSO from 5 mM in 3-fold dilutions, and then diluted 1:250 in Yssel's medium. 50 μL of 2× compound was added per well in duplicate and the cells were allowed to proliferate for 72 hours at 37° C.
Proliferation was measured using Cell Titer-Glo. The substrate was thawed and allowed to come to room temperature. After mixing the Cell Titer-Glo reagent and diluent together, 100 μL was added to each well. The plates were mixed on an orbital shaker for two minutes to induce lysis and incubated at room temperature for an additional ten minutes to allow the signal to equilibrate. The Luminescence was read on the Wallac Plate Reader (Wallac Victor2 1420 Multilabel Counter).

Structure (SMILES)	IC50 [nM]
CCNS(=O)(=O)NCc1cccc(Nc2nc(Nc3cccc(S(N)(=O)=O)c3)ncc2F)c1 [Compound I-13, N2-(3-Aminosulfonylphenyl)-N4-[3-[(N-ethylsulfamoylamino)methyl]phenyl]-5-fluoro-2,4-pyrimidinediamine]	< 500
CCNS(=O)(=O)NCc1cccc(Nc2nc(Nc3ccc(S(N)(=O)=O)cc3)ncc2Cl)c1 [Compound I-10, N2-(4-Aminosulfonylphenyl)-5-chloro-N4-[3-[(N-ethylsulfamoylamino)methyl]phenyl]-2,4-pyrimidinediamine]	< 500
CCNS(=O)(=O)NCc1cccc(Nc2nc(Nc3cccc(S(N)(=O)=O)c3)ncc2Cl)c1 [Compound I-9, N2-(3-Aminosulfonylphenyl)-5-chloro-N4-[3-[(N-ethylsulfamoylamino)methyl]phenyl]-2,4-pyrimidinediamine]	< 500
CCNS(=O)(=O)NCc1cccc(Nc2nc(Nc3cccc(S(N)(=O)=O)c3)ncc2C)c1 [Compound I-11, N2-(3-Aminosulfonylphenyl)-N4-[3-[(N-ethylsulfamoylamino)methyl]phenyl]-5-methyl-2,4-pyrimidinediamine]	< 500
CCNS(=O)(=O)NCc1ccc(Nc2nc(Nc3cccc(S(N)(=O)=O)c3)ncc2Cl)cc1 [Compound I-5, N2-(3-Aminosulfonylphenyl)-5-chloro-N4-[4-[(N-ethylsulfamoylamino)methyl]phenyl]-2,4-pyrimidinediamine]	< 500
CCNS(=O)(=O)NCc1cccc(Nc2nc(Nc3ccc(S(N)(=O)=O)cc3)ncc2C)c1 [Compound I-12, N2-(4-Aminosulfonylphenyl)-N4-[3-[(N-ethylsulfamoylamino)methyl]phenyl]-5-methyl-2,4-pyrimidinediamine]	< 500
NS(=O)(=O)c1ccc(Nc2ncc(Cl)c(Nc3ccc(CNS(=O)(=O)NC4CC4)cc3)n2)cc1 [Compound I-19, N2-(4-Aminosulfonylphenyl)-5-chloro-N4-[4-[(N-cyclopropylsulfamoylamino)methyl]phenyl]-2,4-pyrimidinediamine]	< 500
CCNS(=O)(=O)NCc1ccc(Nc2nc(Nc3ccc(S(N)(=O)=O)cc3)ncc2C)cc1 [Compound I-8, N2-(4-Aminosulfonylphenyl)-N4-[4-[(N-ethylsulfamoylamino)methyl]phenyl]-5-methyl-2,4-pyrimidinediamine]	< 500
CCNS(=O)(=O)NCc1ccc(Nc2nc(Nc3cccc(S(N)(=O)=O)c3)ncc2Cl)c(C)c1 [Compound I-15, N2-(3-Aminosulfonylphenyl)-5-chloro-N4-[4-[(N-ethylsulfamoylamino)methyl]-2-methylphenyl]-2,4-pyrimidinediamine]	< 500
